# Experimental data: PubChem BioAssay AID1996
# Conditions: buffer; pH 7.4; 200.0 µM
row,Compound,solubility kinetic [µg/mL]
1,Cc1cc(NC(=O)CSc2nncn2-c2ccccc2)no1,> 47.3
2,CN1CCN(C(=O)c2cc3cc(Cl)ccc3[nH]2)CC1.Cl,> 47.1
3,O=C(CCC1CCCCC1)Nc1ccc(C(=O)c2ccncc2)cc1,< 0.4
4,CCCCC(=O)N/C(N)=N/c1nc2ccccc2o1,0.7
5,O=C(CCC1CCCCC1)NCc1cccnc1,> 37
6,COc1cc(C(=O)N2C[C@H]3C[C@@H](C2)c2cccc(=O)n2C3)cc(OC)c1OC,> 57.7
7,CC(=O)Nc1ccc(-c2nc3ccccc3o2)cc1,1.3
8,Cc1ccc(CNC(=O)CN2C(=O)c3ccccc3S2(=O)=O)cc1,12.5
9,CC(=O)c1ccc(NC(=O)COC(=O)Cn2cnc3ccccc32)cc1,> 52.7
10,N#C/C(=C\c1ccc(F)cc1)C(=O)NC1CCS(=O)(=O)C1 (stereo not given),33.8
11,COc1cccc(OC)c1C(=O)Nc1cccc(S(=O)(=O)Nc2ccccc2Cl)c1,47.1
12,Cc1ccc(S(=O)(=O)Cc2ccc([N+](=O)[O-])cc2)cc1,< 0.6
13,C=CCC(CC=C)(C(N)=O)c1ccccc1,31.6
14,COc1ccc(CN2CCSc3sccc3C2=O)cc1,> 45.8
15,CCc1c(C(=O)Nc2ccc(C)c(C)c2)[nH]c(C)c1C(C)=O,3
16,Cc1ccc(C)c(NS(=O)(=O)c2ccc3[nH]c(=O)[nH]c3c2)c1,4.8
17,CCOc1ccc(CC(=O)NCCc2cnc[nH]2)cc1,> 41
18,CCC(C)[C@H](NC(=O)N1CCC(C)CC1)C(=O)OC (stereo not given in full),> 40.6
19,Nc1nc(SC23CC4CC(CC(C4)C2)C3)ns1,< 0.2
20,COc1ccc2nc(C)c3c(c2c1)OC(C(C)(Cl)Br)C3 (stereo not given),4
21,COCCCNC(=O)c1cn(C)c(=O)c2c1c1ccccc1n2C,19.8
22,CCc1ccc(NC(=O)Cn2cnc([N+](=O)[O-])c2)cc1,23
23,N/C(=N\OC(=O)c1ccc(OCC(F)(F)F)nc1)c1ccc(Cl)cc1,1.2

row,Compound,solubility kinetic [µg/mL]
1,COc1cc(NC(=O)COC(=O)c2[nH]c(C)c(C(C)=O)c2C)cc(OC)c1,4
2,OCC[NH+](CCO)CC(O)COc1ccc(Br)cc1.[Cl-] (stereo not given),> 55.6
3,CCc1ccc(NC(=O)C(C)OC(=O)/C=C/c2ccc(O)c(OC)c2)cc1 (stereo not given),4.1
4,CCC(OC(=O)c1ccco1)C(=O)NCc1ccc2c(c1)OCO2 (stereo not given),46.5
5,COc1ccc2[nH]c(=O)c(CN(C(=O)c3cccnc3)c3cccc(C)c3)cc2c1,3.9
6,C=C(C)C(=O)Oc1ccc(N2C(=O)[C@@H]3C4C=CC(C4)[C@@H]3C2=O)cc1,10.1
7,COC(=O)CCNC(=O)c1ccc2[nH]c(C)c(C)c2c1,> 41.1
8,COC(=O)c1ccc(C(=O)OC)c(NC(=O)/C=C/C(=O)O)c1,> 46.1
9,CNc1ccccc1NC(=O)CCn1c(=S)oc2ccccc21,5.6
10,O=C(CCCN1CCC(O)(c2ccc(Cl)cc2)CC1)c1ccc(F)cc1,23.5
11,Cc1ccc(-c2cc(C(=O)O)c3ccccc3n2)s1,> 40.4
12,O=C(COC(=O)c1ccccc1OCc1ccc(Cl)cc1)NCC1CCCO1 (stereo not given),> 60.6
13,COc1ccc2c(c1OC)C(=O)N(c1cccc(/C=C/C(=O)O)c1)C2,> 50.9
14,Cc1cccc(NC(=O)Cc2c(F)cccc2Cl)n1,> 41.8
15,CC(C)C(=O)Nc1ccc(Oc2ccc3c(c2)C(=O)NC3=O)cc1,< 0.3
16,COc1ccccc1CC(=O)OCC(=O)N1CCN(c2ccc(F)cc2)CC1,> 58
17,O=C(CSC1=NCCS1)c1ccc(Cl)cc1,31.2
18,CC(=O)N(C)c1ccc(NC(=O)Cc2cccs2)cc1,42.6
19,Cc1ccc(OCC(=O)NCCNC(=O)c2ccco2)cc1,32.9
20,O=C1CN(C(=O)COC(=O)/C=C/c2ccc(F)cc2)c2ccccc2N1,4.6
21,O=C(Nc1ccc(NC(=O)C2CC2)cc1)c1ccco1,> 40.5
22,Cc1ccc(NC(=O)COC(=O)C2=NNC(=O)CC2)c(Br)c1,> 55.2
23,Cc1ccc(S(=O)(=O)N2CCOCC2)cc1NC(=O)COC(=O)c1ccc(Cl)nc1,> 68.1

row,Compound,solubility kinetic [µg/mL]
1,O=C(COC(=O)c1ccc(O)cc1O)NC1CCCCCC1,> 46.1
2,COc1cc(N2C(=O)CC3(CCCC3)CC2=O)cc(OC)c1OC,47.2
3,C/C(=N\OCc1cccc(C(=O)O)c1)c1ccc(Cl)cc1,> 45.6
4,CSCCC(NC(=O)c1cccc(C)c1)C(=O)O (stereo not given),> 40.1
5,Cc1cc2c(SCC(=O)NCC3CCCO3)ncnc2s1 (stereo not given),> 48.5
6,O=C(Cc1ccccc1)NCC(=O)N1CCN(Cc2cccc(Cl)c2)CC1,> 57.9
7,O=C(CNC(=O)c1ccccc1)NCC(=O)OCC(=O)c1ccccc1Cl,50.1
8,Cc1ccccc1-n1ccnc1SCC(=O)Nc1cccc(S(=O)(=O)NC2=NCCC2)c1,> 70.4
9,Cc1cc(C)cc(OCC(=O)Nc2nc(-c3cccnc3)cs2)c1,3.2
10,O=C1NC(=O)C(c2cccs2)(c2cccs2)N1,> 39.6
11,O=C(C[n+]1cccc(O)c1)NCc1ccc(Cl)cc1.[Cl-],> 47
12,Cc1cccc2c(N=O)c(O)[nH]c12,> 26.4
13,COc1ccc(C(=O)NCCc2ccc(F)cc2)cc1OC,> 45.5
14,COc1ccc(NC(=O)Cn2cc(C#N)c3ccccc32)cc1,< 0.2
15,Cc1ccc(NC(=S)Nc2cccc(-c3n[nH]c(=S)o3)c2)cc1,> 51.4
16,CC(C)N(CC(N)=O)C(=O)c1sc2cc(F)ccc2c1Cl,45
17,O=C(COC(=O)c1cccc(OC(F)F)c1)Nc1cccc(S(=O)(=O)N2CCCC2)c1,10.9
18,CCCc1nc(SCC(=O)NC2CC2)c2c(C)c(C)sc2n1,0.8
19,OC(c1nc2ccccc2[nH]1)C(O)C(O)C(O)c1nc2ccccc2[nH]1 (stereo not given),1.4
20,CC1CN(C(=O)COC(=O)c2ccc(N(C)C)cc2)CC(C)O1 (stereo not given),> 48.1
21,CCCN1C2CCCC1CC(NC(=O)NC13CC4CC(CC(C4)C1)C3)C2 (stereo not given),> 53.9
22,O=C(COc1ccc(Cl)cc1)NCCCNC(=O)c1cnccn1,> 52.3
23,O=C(NCCN1CCCCC1)Nc1cccc(C(F)(F)F)c1,> 47.3

row,Compound,solubility kinetic [µg/mL]
1,Cc1ccc(S(=O)(=O)Nc2nc3ccc(N)cc3s2)cc1,45.8
2,Cc1cc2sc(NC(=O)c3ccco3)nc2cc1Cl,0.6
3,OCCCNc1nc(-c2ccccc2)c2cc(Cl)ccc2n1,21.5
4,COc1cc(OC)c(C(=O)OCC(=O)Nc2ccc(N3CCOCC3)cc2)cc1OC,6.5
5,COc1ccc2c(c1)c(C)cc[n+]2Cc1ccccc1.[Cl-],31.9
6,c1ccc(N2CCN(Cc3cn4ccccc4n3)CC2)cc1,40.8
7,O=C1NC(=O)C(Cc2c[nH]c3ccccc23)N1 (stereo not given),> 34.4
8,Cc1cc(C)nc(SCCC(=O)Nc2ccccc2Cl)n1,> 48.3
9,Cc1cc(NC(=O)c2ccc([N+](=O)[O-])cc2)no1,< 0.2
10,CCNC(=S)Nn1cnc2ccccc21,> 33
11,CCOC(=O)N1CCN(S(=O)(=O)c2ccc(C)cc2)C1,38
12,COc1ccc(COC(=O)CN2C(=O)NC3(CC(C)CC(C)(C)C3)C2=O)cc1F (stereo not given),5.1
13,CCCOc1ccc(NC(=O)CC2Nc3ccccc3NC2=O)cc1 (stereo not given),2.7
14,CCOC(=O)c1c(-c2cccs2)csc1N,26.8
15,COc1ccc([N+](=O)[O-])c(OC)c1C(=O)Nc1ccc(F)cc1F,33.9
16,COc1ccc(CCN)cc1OC,24.8
17,CC(NC(N)=O)C(=O)NCC(=O)OCc1ccccc1 (stereo not given),> 41.9
18,C/C=C/C=C/C(=O)OC(C)C(=O)Nc1cc([N+](=O)[O-])ccc1OC (stereo not given),18
19,Cc1ccc(NC(=O)CNC(=O)c2ccc3c(c2)OCO3)nc1,20.5
20,Cc1nc(N2CCOCC2)nc(N2CCCCC2C)c1[N+](=O)[O-] (stereo not given),12.2
21,COc1ccc(CCC(=O)NC2CCC(C)CC2)cc1 (stereo not given),22.2
22,CC(=O)NNc1cc(C)nc(N)n1,> 27.2
23,COc1ccccc1NC(=O)Nc1ccc2c(c1)nc(C)n2C,5.7

row,Compound,solubility kinetic [µg/mL]
1,CCN(C(=O)CSc1ncccn1)C1CCS(=O)(=O)C1 (stereo not given),> 47.3
2,Cc1ccc(C(=O)NCC(=O)O)o1,25.1
3,Cc1ccc(NC(=O)CC(C)c2ccccc2)cc1S(=O)(=O)N1CCOCC1 (stereo not given),47.5
4,O=C1NC(=O)/C(=C/c2ccc(-c3cc(C(=O)O)ccc3Cl)o2)S1,> 52.5
5,Cc1cccc(S(=O)(=O)NC2CCCCCCC2)c1,25.2
6,CCOC(=O)c1ccc(S(=O)(=O)Nc2cc(S(=O)(=O)N3CCOCC3)ccc2O)cc1,69.5
7,CC(C)(C)NC(=O)[C@H]1CC[C@H]2[C@@H]3CC[C@H]4NC(=O)C=C[C@]4(C)[C@H]3CC[C@]12C,52.8
8,O=C(N/C=C\n1cnc2cc(C(F)(F)F)ccc21)c1ccc([N+](=O)[O-])cc1,2.8
9,CC(NC(=O)COc1ccccc1)C(c1cccs1)N1CCCC1 (stereo not given),> 51.7
10,CCN(C/C=C/c1ccccc1OC)Cc1ccccc1,18.3
11,CCNC(=O)NC(=O)C(C)OC(=O)CCCc1nc2ccccc2s1 (stereo not given),49.4
12,CN1C(=O)c2cccc3c(S(=O)(=O)Nc4ccccc4F)ccc1c23,9.6
13,CS(=O)(=O)c1ccc(C(=O)Nc2ccccc2Cl)cc1,> 46.5
14,CN1CCN(c2c([N+](=O)[O-])cnc3ccccc23)CC1.Cl,> 46.3
15,CCOc1ccc(C(C)=O)cc1Cn1c(=O)oc2ccccc21,13.7
16,Cc1onc(-c2c(Cl)cccc2Cl)c1CO/N=C(\C#N)c1c(Cl)cccc1Cl,< 0.3
17,C/C(=C\c1ccccc1F)C(=O)c1c(C)cc(C)[nH]c1=O,> 42.8
18,CN(CC(=O)Nc1ccc(Cl)c(C(F)(F)F)c1)C(=O)COC(=O)C1CC2CCCC(C1)C2=O (stereo not given),59.2
19,Cc1ccc(CC(=O)Nc2cc(C)on2)cc1,14
20,COC(=O)C1=C(N)OC2=C(C(=O)CCC2)C1c1cccnc1 (stereo not given),42.7
21,COc1ccc(C2C3=C(CCCC3=O)NC3=C2C(=O)c2ccccc23)cc1 (stereo not given),< 0.8
22,COC(=O)[C@H](Cc1ccccc1)NC(=O)NC(C)CCc1ccccc1 (stereo not given in full),49.8
23,COc1ccc(NC(=O)CSc2nnc(N)s2)c([N+](=O)[O-])c1,> 51.2
